Reference: ChEMBL document CHEMBL1157504, “Discovery and SAR of 2-(1-propylpiperidin-4-yl)-1H-benzimidazole-4-carboxamide: A potent inhibitor of poly(ADP-ribose) polymerase (PARP) for the treatment of cancer” (Bioorg Med Chem, 2008)
pEC50, pKi: −log10 of the molar value. In brackets after ≈: the same amount, converted by molar mass. One block for each molecule: values may come before it.

Assays:
[1] = target: T1, Poly [ADP-ribose] polymerase 1 (Homo sapiens, UniProt P09874)
[2] = target: T1, Poly [ADP-ribose] polymerase 1; remark: listed apart in the source
Description: Inhibition of PARP1 in human C41 cells

[3] = Cmax in CD1 mouse at 10 mg/kg, po; assay type: ADME, organism-based; parameters: dose 10 mg/kg, route oral; conditions: in vivo
[4] = Half life in CD1 mouse at 3 mg/kg, iv; assay type: ADME, organism-based; parameters: dose 3 mg/kg, route intravenous; conditions: in vivo
[5] = AUC in CD1 mouse at 10 mg/kg, po; assay type: ADME, organism-based; parameters: dose 10 mg/kg, route oral; conditions: plasma
[6] = Oral bioavailability in CD1 mouse at 10 mg/kg; assay type: ADME, organism-based; conditions: in vivo
[7] = Half life in rat at 4.1 mg/kg, iv; assay type: ADME, organism-based; parameters: dose 4.1 mg/kg, route intravenous; conditions: in vivo
[8] = AUC in dog at 4.1 mg/kg, po; assay type: ADME, organism-based, Canis lupus familiaris; parameters: dose 4.1 mg/kg, route oral; conditions: plasma
[9] = Protein binding in human plasma; assay type: ADME, cell-free; conditions: read-out: PPB (converted)
[10] = Half life in CD1 mouse at 3 mg/kg, iv; conditions: in vivo
[11] = Clearance in CD1 mouse at 10 mg/kg; assay type: ADME, organism-based; parameters: dose 10 mg/kg; conditions: in vivo
[12] = Clearance in monkey at 4.1 mg/kg; assay type: ADME, organism-based, Macaca mulatta; parameters: dose 4.1 mg/kg; conditions: rhesus monkey, in vivo
[13] = Cmax in rat at 4.1 mg/kg, po; assay type: ADME, organism-based; parameters: dose 4.1 mg/kg, route oral; conditions: in vivo
[14] = Volume of distribution at steady state in dog at 4.1 mg/kg; assay type: ADME, organism-based, Canis lupus familiaris; parameters: dose 4.1 mg/kg; conditions: in vivo, read-out: Vdss
[15] = Solubility in water at pH 7.8; assay type: physicochemical
[16] = Cmax in dog at 4.1 mg/kg, po; assay type: ADME, organism-based, Canis lupus familiaris; parameters: dose 4.1 mg/kg, route oral; conditions: in vivo
[17] = Volume of distribution at steady state in CD1 mouse at 10 mg/kg; assay type: ADME, organism-based; parameters: dose 10 mg/kg; conditions: in vivo, read-out: Vdss
[18] = Clearance in rat at 4.1 mg/kg; assay type: ADME, organism-based; parameters: dose 4.1 mg/kg; conditions: in vivo
[19] = Oral bioavailability in dog at 4.1 mg/kg; assay type: ADME, organism-based, Canis lupus familiaris; conditions: in vivo
[20] = Cmax in monkey at 4.1 mg/kg, po; assay type: ADME, organism-based, Macaca mulatta; parameters: dose 4.1 mg/kg, route oral; conditions: rhesus monkey, in vivo
[21] = Half life in monkey at 4.1 mg/kg, iv; assay type: ADME, organism-based, Macaca mulatta; parameters: dose 4.1 mg/kg, route intravenous; conditions: rhesus monkey, in vivo
[22] = Oral bioavailability in rat at 4.1 mg/kg; assay type: ADME, organism-based; conditions: in vivo
[23] = AUC in monkey at 4.1 mg/kg, po; assay type: ADME, organism-based, Macaca mulatta; parameters: dose 4.1 mg/kg, route oral; conditions: rhesus monkey, plasma
[24] = Oral bioavailability in monkey at 4.1 mg/kg; assay type: ADME, organism-based, Macaca mulatta; conditions: rhesus monkey, in vivo
[25] = Volume of distribution at steady state in rat at 4.1 mg/kg; assay type: ADME, organism-based; parameters: dose 4.1 mg/kg; conditions: in vivo, read-out: Vdss
[26] = Clearance in dog at 4.1 mg/kg; assay type: ADME, organism-based, Canis lupus familiaris; parameters: dose 4.1 mg/kg; conditions: in vivo
[27] = AUC in rat at 4.1 mg/kg, po; assay type: ADME, organism-based; parameters: dose 4.1 mg/kg, route oral; conditions: plasma
[28] = Half life in dog at 4.1 mg/kg, iv; assay type: ADME, organism-based, Canis lupus familiaris; parameters: dose 4.1 mg/kg, route intravenous; conditions: in vivo
[29] = Volume of distribution at steady state in monkey at 4.1 mg/kg; assay type: ADME, organism-based, Macaca mulatta; parameters: dose 4.1 mg/kg; conditions: rhesus monkey, in vivo, read-out: Vdss
[30] = target: Poly [ADP-ribose] polymerase 2 (Homo sapiens, UniProt Q9UGN5); test: Inhibition of PARP2
Poly [ADP-ribose] polymerase 2, sequence (Q9UGN5 whole entry): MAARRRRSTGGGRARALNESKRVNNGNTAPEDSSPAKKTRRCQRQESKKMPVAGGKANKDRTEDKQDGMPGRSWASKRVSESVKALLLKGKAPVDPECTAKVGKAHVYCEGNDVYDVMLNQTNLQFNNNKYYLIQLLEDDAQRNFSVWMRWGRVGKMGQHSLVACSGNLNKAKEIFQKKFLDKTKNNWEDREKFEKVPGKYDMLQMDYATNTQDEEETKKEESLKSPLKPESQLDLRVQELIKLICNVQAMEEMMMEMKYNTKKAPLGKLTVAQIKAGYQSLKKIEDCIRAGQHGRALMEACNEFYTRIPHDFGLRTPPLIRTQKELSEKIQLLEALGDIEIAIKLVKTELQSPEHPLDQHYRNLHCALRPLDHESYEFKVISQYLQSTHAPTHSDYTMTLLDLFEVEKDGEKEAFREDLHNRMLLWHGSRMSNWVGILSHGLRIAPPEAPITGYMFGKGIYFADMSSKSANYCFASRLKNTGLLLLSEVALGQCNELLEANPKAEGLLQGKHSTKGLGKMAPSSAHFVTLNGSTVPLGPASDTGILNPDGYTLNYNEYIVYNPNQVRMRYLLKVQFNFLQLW

T1 sequence (P09874 whole entry): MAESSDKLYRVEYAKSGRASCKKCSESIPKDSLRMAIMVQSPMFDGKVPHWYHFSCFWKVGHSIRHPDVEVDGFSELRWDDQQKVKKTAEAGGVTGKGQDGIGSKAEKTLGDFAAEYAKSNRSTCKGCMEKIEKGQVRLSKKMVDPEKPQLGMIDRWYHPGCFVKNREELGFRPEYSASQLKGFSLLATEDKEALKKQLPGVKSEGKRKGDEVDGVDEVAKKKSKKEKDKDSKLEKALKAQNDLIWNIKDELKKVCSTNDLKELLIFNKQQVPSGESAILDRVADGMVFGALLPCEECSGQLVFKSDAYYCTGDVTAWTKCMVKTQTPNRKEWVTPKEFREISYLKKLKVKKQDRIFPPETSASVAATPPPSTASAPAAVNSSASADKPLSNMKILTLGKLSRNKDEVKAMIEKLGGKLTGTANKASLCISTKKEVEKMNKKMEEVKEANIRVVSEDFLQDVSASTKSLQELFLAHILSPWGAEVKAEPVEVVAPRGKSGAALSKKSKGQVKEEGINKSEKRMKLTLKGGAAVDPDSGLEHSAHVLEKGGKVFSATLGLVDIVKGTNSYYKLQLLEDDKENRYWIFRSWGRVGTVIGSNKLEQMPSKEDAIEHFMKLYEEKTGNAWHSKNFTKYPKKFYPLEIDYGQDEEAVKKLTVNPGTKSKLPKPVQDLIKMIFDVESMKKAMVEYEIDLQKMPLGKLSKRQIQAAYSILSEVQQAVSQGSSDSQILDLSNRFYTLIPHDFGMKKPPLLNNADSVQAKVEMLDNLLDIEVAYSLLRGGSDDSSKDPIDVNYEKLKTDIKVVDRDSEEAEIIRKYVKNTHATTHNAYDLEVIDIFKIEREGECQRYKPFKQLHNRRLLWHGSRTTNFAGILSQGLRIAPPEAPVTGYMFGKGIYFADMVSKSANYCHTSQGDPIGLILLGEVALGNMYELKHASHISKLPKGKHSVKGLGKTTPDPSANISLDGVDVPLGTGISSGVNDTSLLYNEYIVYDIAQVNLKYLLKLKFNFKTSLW

pKi [1]: 6.62
Compound: NC(=O)c1cccc2[nH]cnc12

Compound: COC1CCC(c2nc3cccc(C(N)=O)c3[nH]2)CC1 (centres undefined)
pKi [1]: 7.36
pEC50 [2]: 6.68

pKi [1]: 7.54
pEC50 [2]: 7.52
Compound: CN1CCCCC1c1nc2c(C(N)=O)cccc2[nH]1 (centres undefined)

pKi [1]: 7.70
pEC50 [2]: 7.82
Compound: CC(C)N1CCC[C@H]1c1nc2c(C(N)=O)cccc2[nH]1

pKi [1]: 8.22
pEC50 [2]: 8.30
Compound: NC(=O)c1cccc2[nH]c(C3CCN(C4CCCC4)CC3)nc12

Cmax [3]: 800 ng/mL
half-life [4]: 0.4 h
pKi [1]: 7.66
pEC50 [2]: 7.92
AUC [5]: 1200 ng·h/mL
bioavailability [6]: 100%
Compound: CC(C)N1CCCC(c2nc3cccc(C(N)=O)c3[nH]2)C1 (centres undefined)

pKi [1]: 7.77
pEC50 [2]: 7.80
Compound: CCCN1CC(c2nc3c(C(N)=O)cccc3[nH]2)C1

half-life [7]: 2.6 h
AUC [8]: 3700 ng·h/mL
fraction unbound [9]: 0.43
half-life [10]: 1.2 h
Cmax [3]: 400 ng/mL
half-life [4]: 1.2 h
clearance [11]: 88.3 mL/min/kg
clearance [12]: 33.3 mL/min/kg
Cmax [13]: 800 ng/mL
Vd [14]: 3.6 L/kg
solubility [15]: 6000 µg/mL (≈ 21 mM)
Cmax [16]: 1000 ng/mL
pKi [1]: 8.10
Vd [17]: 9.1 L/kg
clearance [18]: 48.3 mL/min/kg
bioavailability [19]: 82%
Cmax [20]: 200 ng/mL
half-life [21]: 1.7 h
bioavailability [22]: 48%
pEC50 [2]: 8.52
AUC [23]: 700 ng·h/mL
bioavailability [24]: 32%
Vd [25]: 10.7 L/kg
clearance [26]: 15 mL/min/kg
AUC [27]: 700 ng·h/mL
AUC [5]: 1200 ng·h/mL
half-life [28]: 2.7 h
Vd [29]: 4.9 L/kg
pKi [30]: 8.30
bioavailability [6]: 63%
Compound: CCCN1CCC(c2nc3cccc(C(N)=O)c3[nH]2)CC1

pKi [1]: 8.15
pEC50 [2]: 8.40
pKi [30]: 8.70
Compound: CC(C)N1CCC(c2nc3c(C(N)=O)cccc3[nH]2)CC1

Cmax [3]: 700 ng/mL
half-life [4]: 0.8 h
pEC50 [2]: 8.22
AUC [5]: 1300 ng·h/mL
bioavailability [6]: 89%
Compound: NC(=O)c1cccc2[nH]c(C3CCN(CCc4ccccc4)C3)nc12 (centres undefined)

pKi [1]: 7.52
pEC50 [2]: 7.82
Compound: CN1CCCC(c2nc3c(C(N)=O)cccc3[nH]2)C1 (centres undefined)

pKi [1]: 7.72
pEC50 [2]: 8.05
Compound: CN1CCC(c2nc3cccc(C(N)=O)c3[nH]2)CC1

Compound: N#Cc1ccc(N2CCC(c3nc4c(C(N)=O)cccc4[nH]3)CC2)cc1
pKi [1]: 8.52
pEC50 [2]: 7.68

pKi [1]: 7.51
pEC50 [2]: 7.03
Compound: CCN(CC)CCN1CCC(c2nc3cccc(C(N)=O)c3[nH]2)CC1

Compound: NC(=O)c1cccc2[nH]c(C3CNCCN3)nc12 (centres undefined)
pKi [1]: 7.59
pEC50 [2]: < 6.00

pKi [1]: 7.55
pEC50 [2]: 6.77
Compound: CN(C)S(=O)(=O)N1CCC(c2nc3c(C(N)=O)cccc3[nH]2)CC1

Cmax [3]: 300 ng/mL
half-life [4]: 1.4 h
pKi [1]: 7.74
pEC50 [2]: 8.05
AUC [5]: 1700 ng·h/mL
bioavailability [6]: 100%
Compound: CC(C)N1CCC(c2nc3c(C(N)=O)cc(Cl)cc3[nH]2)CC1

pKi [30]: 8.52
Compound: NC(=O)c1cccc2nc([C@@H]3CCC(=O)N3)[nH]c12

pKi [1]: 7.23
Compound: CC(=O)N1CCC(c2nc3cccc(C(N)=O)c3[nH]2)CC1

pKi [1]: 8.30
pEC50 [2]: < 6.00
Compound: NC(=O)c1cccc2[nH]c(C3CCNCC3)nc12

pKi [1]: 6.96
Compound: CC(C)N1CCC1c1nc2c(C(N)=O)cccc2[nH]1 (centres undefined)

Compound: NC(=O)c1cccc2[nH]c(C3CCCNC3)nc12 (centres undefined)
Cmax [3]: 200 ng/mL
half-life [4]: 2 h
pKi [1]: 7.96
pEC50 [2]: 7.62
AUC [5]: 1000 ng·h/mL
bioavailability [6]: 26%

Cmax [3]: 1800 ng/mL
half-life [4]: 1.2 h
AUC [5]: 3400 ng·h/mL
bioavailability [6]: 100%
Compound: NC(=O)c1cccc2[nH]c([C@H]3CCCN3)nc12

pKi [1]: 8.10
pEC50 [2]: 8.52
Compound: CCCN1CCC(c2nc3c(C(N)=O)cccc3[nH]2)C1 (centres undefined)

pEC50 [2]: 6.70
Compound: NC(=O)c1cccc2[nH]c(C3CCN3)nc12 (centres undefined)

pKi [1]: 7.68
pEC50 [2]: 7.92
Compound: CC(C)N1CCC[C@@H]1c1nc2cccc(C(N)=O)c2[nH]1

pKi [1]: 7.35
pEC50 [2]: 7.89
Compound: CC(C)N1CCCCC1c1nc2c(C(N)=O)cccc2[nH]1 (centres undefined)

Cmax [3]: 30 ng/mL
half-life [4]: 0.1 h
AUC [5]: 40 ng·h/mL
bioavailability [6]: 25%
Compound: CN1CCC[C@@H]1c1nc2c(C(N)=O)cccc2[nH]1

pKi [1]: 8.30
pEC50 [2]: 8.22
Compound: CC(C)N1CCCC(c2nc3cccc(C(N)=O)c3[nH]2)CC1 (centres undefined)

pKi [1]: 7.46
pEC50 [2]: 7.01
Compound: CN1CCN(C)C(c2nc3cccc(C(N)=O)c3[nH]2)C1 (centres undefined)

pKi [1]: 7.47
pEC50 [2]: 7.68
Compound: CCCN1CCC(c2nc3c(C(N)=O)cccc3n2C)CC1

Compound: NC(=O)c1cccc2[nH]c(C3CCN(S(=O)(=O)c4ccccc4)CC3)nc12
pKi [1]: 7.57
pEC50 [2]: < 6.00
pKi [30]: 7.62

pKi [30]: 7.96
Compound: NC(=O)c1cccc2[nH]c(C3CNC3)nc12
